From EP4678638A1, “NEW E3 UBIQUITIN LIGASE LIGAND, PROTEIN DEGRADATION AGENT AND USE THEREOF” (priority 2023, dated 2024)

How the values were obtained:
[1] = test system: EGFR; experiment: Western blot degradation of EGFR (H1975 Cell); format: cell-based, Human; conditions: Table D2
In short: (§1)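 Degradation is assessed by immunoblotting lysates of treated cells. Target bands are quantified by grayscale and normalised to an internal control, so degradation rate equals 100% minus % remaining.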

[2] = test system: PC-9; experiment: CCK-8 proliferation, PC-9; format: cell-based, Human; conditions: Homo sapiens, PC-9; CCK-8; 96 hours; read-out: Inhibitory activity (IC50) on tumor cell proliferation, PC-9
In short: (§2)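 CCK-8 viability readout; IC50 from growth-inhibition curve fitting. Cells plated, dosed 24h later with a 10-point series, top 10µM, 5-fold steps. Culture at 37°C, 5% CO2.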

[3] = test system: HCC827; experiment: CCK-8 proliferation, HCC827; format: cell-based, Human; conditions: Homo sapiens, HCC827; CCK-8; 96 hours; read-out: Inhibitory activity (IC50) on tumor cell proliferation, HCC827
Procedure: (§3) The tumor cells used herein were cultured in a cell culture medium listed in table A1 at 37°C in an incubator with 5% CO2. Prior to experimentation, all cell lines used were correctly identified by STR profiling, and tested negative for mycoplasma contamination using a mycoplasma detection kit through routine screenings. Table A1. Tumor cells and cell culture medium used in the present disclosure
(§4) IC50 values of the compounds of the present disclosure (including the compounds in Table 1, and compounds of examples) were measured using the Meilun Cell Counting Kit-8 kit from Dalian Meilun Biotech Co., Ltd. Assay details are as follows: tumor cells were seeded in a 96-well plate at a density listed in Table A2. After 24h, 100 µL of the inoculated cells were treated with 0.5µL of the compounds of the present disclosure (including the compounds in Tables 1 and 2, and compounds of examples) at 10 different successively decreasing concentrations (starting at the highest concentration of 10µM; 5-fold serial dilutions). After the cells were treated with the compounds of the present disclosure for a period of time, the cell viability detection reagent was added to the culture medium for cell viability assessment according to the instructions provided with the CCK-8 kit. […] The growth inhibition of the compounds of the present disclosure on cells was plotted by Prism Graphpad software, and the IC50 values of the compounds of the present disclosure were calculated therefrom. […] Seeding protocol and treatment time for tumor cells

[4] = test system: H1975; experiment: CCK-8 proliferation, NCI-H1975 (H1975); format: cell-based, Human; conditions: Homo sapiens, NCI-H1975; CCK-8; 96 hours; read-out: Inhibitory activity (IC50) on tumor cell proliferation, H1975
In short: as §2

[5] = test system: MGC-803; experiment: CCK-8 proliferation, MGC-803 (heads: MGC80-3, MGC803); format: cell-based, Human; conditions: Homo sapiens, MGC-803; Table B10, compounds designed based on the IRAK4 inhibitors; MGC803 cells; read-out: Inhibitory activity (IC50, nM) on tumor cell proliferation, MGC803
Procedure: as §3, §4

[6] = test system: MM.1S; experiment: CCK-8 proliferation, MM.1S; format: cell-based; conditions: Homo sapiens, MM1.S; Table B10, compounds designed based on the IRAK4 inhibitors; MM.1S cells; read-out: Inhibitory activity (IC50, nM) on tumor cell proliferation, MM.1S
In short: as §2

[7] = target: T1, IRAK4 (Homo sapiens, UniProt Q9NWZ3); experiment: Western blot degradation of IRAK4 (hPBMC); format: cell-based; conditions: Table D1
T1 construct: evaluate the effects of the compounds of the present disclosure on the expression of target proteins in cells; endogenous in cells; host or cells: hPBMC
T1 sequence (Q9NWZ3 1-460): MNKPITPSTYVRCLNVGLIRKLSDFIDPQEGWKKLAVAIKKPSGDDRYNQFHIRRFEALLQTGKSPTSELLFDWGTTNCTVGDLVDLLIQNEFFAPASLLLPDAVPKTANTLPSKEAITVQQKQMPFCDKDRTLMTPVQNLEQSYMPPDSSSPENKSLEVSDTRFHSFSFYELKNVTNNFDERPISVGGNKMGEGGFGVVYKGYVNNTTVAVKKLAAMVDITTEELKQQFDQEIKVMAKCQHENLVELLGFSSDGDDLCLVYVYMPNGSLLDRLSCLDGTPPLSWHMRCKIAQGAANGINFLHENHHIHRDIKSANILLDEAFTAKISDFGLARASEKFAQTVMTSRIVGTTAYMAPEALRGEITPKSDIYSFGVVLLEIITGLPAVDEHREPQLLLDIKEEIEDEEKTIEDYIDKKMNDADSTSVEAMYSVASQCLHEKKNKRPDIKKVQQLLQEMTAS
In short: as §1

[8] = test system: SR; experiment: CCK-8 proliferation, SR; format: cell-based, Human; conditions: Homo sapiens; Table B10, compounds designed based on the IRAK4 inhibitors; SR cells; read-out: Inhibitory activity (IC50, nM) on tumor cell proliferation, SR
In short: as §2

[9] = test system: Jurkat; experiment: CCK-8 proliferation, Jurkat; format: cell-based, Human; conditions: Homo sapiens; Table B10, compounds designed based on the IRAK4 inhibitors; Jurkat cells; read-out: Inhibitory activity (IC50, nM) on tumor cell proliferation, Jurkat
Procedure: as §3, §4

Row | Structure (SMILES) | Degradation of substrate protein EGFR (substrate protein remaining %) [1] | IC50 [2] [nM] | IC50 [3] [nM] | IC50 [4] [nM] | IC50 [5] [nM] | IC50 [6] [nM] | Degradation of substrate protein IRAK4 (substrate protein remaining %) [7] | IC50 [8] [nM] | IC50 [9] [nM]
1 | CN(Cc1ccc(C2CCC(=O)NC2=O)c(F)c1)C1CCN(c2ccc(Nc3ncc4nc(Nc5ccccc5)n(C5CCCC5)c4n3)cc2)CC1 (stereo not shown) [GT-03864, 3-(4-(((1-(4-((9-cyclopentyl-8-(phenylamino)-9H-purin-2-yl)amino)phenyl)piperidin-4-yl)(methyl)amino)methyl)-2-fluorophenyl)piperidine-2,6-dione] | A (A is defined as 0% ≤ substrate protein remaining % ≤ 80%) | 1 to 10 | 1 to 10 | 100 to 500 | – | – | – | – | –
2 | CN(Cc1cccc(N2CCC(=O)NC2=O)c1)C1CCN(c2ccc(Nc3ncc4nc(Nc5ccccc5)n(C5CCCC5)c4n3)cc2)CC1 [GT-05870, 1-(3-(((1-(4-((9-cyclopentyl-8-(phenylamino)-9H-purin-2-yl)amino)phenyl)piperidin-4-yl)(methyl)amino)methyl)phenyl)dihydropyrimidine-2,4(1H,3H)-dione] | A (A is defined as 0% ≤ substrate protein remaining % ≤ 80%) | 1 to 10 | 10 to 50 | 100 to 500 | – | – | – | – | –
3 | Cc1cc(-c2nc(C(=O)Nc3cc4oc(N5CCOCC5)nc4nc3N3CC[C@@H](O)C3)co2)ccn1 [emavusertib, reference compound] | – | – | – | – | > 10000 | > 10000 | – | – | –
4 | O=C1CCN(c2ccc(CN3CCN(c4ccc(Nc5ncc6nc(Nc7ccccc7)n(C7CCCC7)c6n5)cc4)CC3)cn2)C(=O)N1 [GT-05840, 1-(5-((4-(4-((9-cyclopentyl-8-(phenylamino)-9H-purin-2-yl)amino)phenyl)piperazin-1-yl)methyl)pyridin-2-yl)dihydropyrimidine-2,4(1H,3H)-dione] | A (A is defined as 0% ≤ substrate protein remaining % ≤ 80%) | 1 to 10 | 10 to 50 | 100 to 500 | – | – | – | – | –
5 | O=C1CCN(c2cccc(CN3CCN(C4CCN(c5ccc(Nc6ncc7nc(Nc8ccccc8)n(C8CCCC8)c7n6)cc5)CC4)CC3)c2)C(=O)N1 [GT-05940, 1-(3-((4-(1-(4-((9-cyclopentyl-8-(phenylamino)-9H-purin-2-yl)amino)phenyl)piperidin-4-yl)piperazin-1-yl)methyl)phenyl)dihydropyrimidine-2,4(1H,3H)-dione] | A (A is defined as 0% ≤ substrate protein remaining % ≤ 80%) | 1 to 10 | 1 to 10 | 100 to 500 | – | – | – | – | –
6 | COc1cc2nn(C3CCN(Cc4ccc(C5CCC(=O)NC5=O)c(F)c4)CC3)cc2cc1NC(=O)c1cccc(C(F)(F)F)n1 (stereo not shown) [GT-04762, N-(2-(1-(4-(2,6-dioxopiperidin-3-yl)-3-fluorobenzyl)piperidin-4-yl)-6-methoxy-2H-indazol-5-yl)-6-(trifluoromethyl)picolinamide] | – | – | – | – | 500 to 1000 | – | A (A is defined as 0% ≤ substrate protein remaining % ≤ 80%) | – | –
7 | O=C1CCN(c2ccc(CN3CCN(c4ccc(Nc5ncc6nc(Nc7ccccc7)n(C7CCCC7)c6n5)cc4)CC3)nc2)C(=O)N1 [GT-05839, 1-(6-((4-(4-((9-cyclopentyl-8-(phenylamino)-9H-purin-2-yl)amino)phenyl)piperazin-1-yl)methyl)pyridin-3-yl)dihydropyrimidine-2,4(1H,3H)-dione] | A (A is defined as 0% ≤ substrate protein remaining % ≤ 80%) | 1 to 10 | 10 to 50 | 100 to 500 | – | – | – | – | –
8 | O=C1CCN(c2cccc(CN3CCN(c4ccc(Nc5ncc6nc(Nc7ccccc7)n(C7CCCC7)c6n5)cc4)CC3)c2)C(=O)N1 [GT-05838, 1-(3-((4-(4-((9-cyclopentyl-8-(phenylamino)-9H-purin-2-yl)amino)phenyl)piperazin-1-yl)methyl)phenyl)dihydropyrimidine-2,4(1H,3H)-dione] | A (A is defined as 0% ≤ substrate protein remaining % ≤ 80%) | 1 to 10 | 1 to 10 | 100 to 500 | – | – | – | – | –
9 | CN(Cc1ccc(C2CCC(=O)NC2=O)cc1)C1CCN(c2ccc(Nc3ncc4nc(Nc5ccccc5)n(C5CCCC5)c4n3)cc2)CC1 (stereo not shown) [GT-03863, 3-(4-(((1-(4-((9-cyclopentyl-8-(phenylamino)-9H-purin-2-yl)amino)phenyl)piperidin-4-yl)(methyl)amino)methyl)phenyl)piperidine-2,6-dione] | A (A is defined as 0% ≤ substrate protein remaining % ≤ 80%) | 1 to 10 | 1 to 10 | 100 to 500 | – | – | – | – | –
10 | O=C1CCC(c2ccc(CN3CCN(c4ccc(Nc5ncc6nc(Nc7ccccc7)n(C7CCCC7)c6n5)cc4)CC3)cc2)C(=O)N1 (stereo not shown) [GT-03740, 3-(4-((4-(4-((9-cyclopentyl-8-(phenylamino)-9H-purin-2-yl)amino)phenyl)piperazin-1-yl)methyl)phenyl)piperidine-2,6-dione] | A (A is defined as 0% ≤ substrate protein remaining % ≤ 80%) | 10 to 50 | 10 to 50 | – | – | – | – | – | –
11 | O=C1CCN(c2ccc(CN3CCC(N4CCN(c5ccc6c(c5)nc(NC(=O)c5cccc(C(F)(F)F)c5)n6[C@H]5CC[C@@H](CO)CC5)CC4)CC3)nc2)C(=O)N1 [GT-05024, N-(5-(4-(1-((5-(2,4-dioxotetrahydropyrimidin-1(2H)-yl)pyridin-2-yl)methyl)piperidin-4-yl)piperazin-1-yl)-1-((1s,4s)-4-(hydroxymethyl)cyclohexyl) -1H-benzo[d]imidazol-2-yl)-3-(trifluoromethyl)benzamide] | – | – | – | – | 500 to 1000 | 500 to 1000 | – | 500 to 1000 | 500 to 1000
12 | O=C1CCN(c2ccc(CN3CCN(C4CCN(c5ccc(Nc6ncc7nc(Nc8ccccc8)n(C8CCCC8)c7n6)cc5)CC4)CC3)nc2)C(=O)N1 [GT-05941, 1-(6-((4-(1-(4-((9-cyclopentyl-8-(phenylamino)-9H-purin-2-yl)amino)phenyl)piperidin-4-yl)piperazin-1-yl)methyl)pyridin-3-yl)dihydropyrimidine-2,4(1H,3H)-dione] | A (A is defined as 0% ≤ substrate protein remaining % ≤ 80%) | 1 to 10 | 10 to 50 | 100 to 500 | – | – | – | – | –
13 | O=C1CCC(Nc2cccc(CN3CCN(c4ccc(Nc5ncc6nc(Nc7ccccc7)n(C7CCCC7)c6n5)cc4)CC3)c2)C(=O)N1 (stereo not shown) [GT-05841, 3-((3-((4-(4-((9-cyclopentyl-8-(phenylamino)-9H-purin-2-yl)amino)phenyl)piperazin-1-yl)methyl)phenyl)amino)piperidine-2,6-dione] | A (A is defined as 0% ≤ substrate protein remaining % ≤ 80%) | 10 to 50 | 10 to 50 | – | – | – | – | – | –
14 | O=C1CCN(c2ccc(CN3CCC(N4CCN(c5ccc6c(c5)nc(NC(=O)c5cccc(C(F)(F)F)c5)n6[C@H]5CC[C@@H](CO)CC5)CC4)CC3)cc2)C(=O)N1 [GT-05021, N-(5-(4-(1-(4-(2,4-dioxotetrahydropyrimidin-1(2H)-yl)benzyl)piperidin-4-yl)piperazin-1-yl)-1-((1s,4s)-4-(hydroxymethyl)cyclohexyl) -1H-benzo[d]imidazol-2-yl)-3-(trifluoromethyl)benzamide] | – | – | – | – | 500 to 1000 | 500 to 1000 | – | – | 500 to 1000
